Measured values reported in ChEMBL document CHEMBL1131402, “Potent piperazine hydroxyethylamine HIV protease inhibitors containing novel P3 ligands” (Bioorg Med Chem Lett, 1998).
pEC50, pIC50: −log10 of the molar value.

How the values were obtained:
[1] = target: Cytochrome P450 3A4 (Homo sapiens, UniProt P08684); assay: […] inhibition of human liver microsomal Cytochrome P450 3A4; type: ADME
[2] = system: MT4; assay: Cytotoxicity against MT-4 cells was determined by using cytopathic effect assay; type: functional, Homo sapiens
[3] = system: Human immunodeficiency virus 1; assay: Anti-HIV activity was determined in MT-4 cells in the presence of 0% human serum using cytopathic effect assay; type: functional, organism-based; settings: Human immunodeficiency virus 1, MT4
[4] = system: Human immunodeficiency virus 1; assay: Anti-HIV activity was determined in MT-4 cells in the presence of 50% human serum using cytopathic effect assay; type: functional, organism-based; settings: Human immunodeficiency virus 1, MT4, Serum
[5] = target: Human immunodeficiency virus type 1 protease (Human immunodeficiency virus 1) (UniProt Q72874); assay: Inhibition of HIV protease at 0.5 nM
[6] = target: Human immunodeficiency virus type 1 protease (Human immunodeficiency virus 1) (UniProt Q72874); assay: Compound was tested for the inhibition of HIV protease at 120 nM
[7] = system: MT4; assay: Anti-HIV activity was determined in MT-4 cells in the presence of 50% human serum using cytopathic effect assay; NA means not active; type: functional, cell-based
[8] = system: MT4; assay: Cytotoxicity against MT-4 cells was determined by using cytopathic effect assay; NA means not active; type: functional, cell-based, Homo sapiens
[9] = target: Human immunodeficiency virus type 1 protease (Human immunodeficiency virus 1) (UniProt Q72874); assay: Compound was tested for the inhibition of HIV protease at 97 nM
[10] = system: MT4; assay: Anti-HIV activity was determined in MT-4 cells in the presence of 0% human serum using cytopathic effect assay; Not active; type: functional, cell-based
[11] = system: Human immunodeficiency virus 1; assay: Antiviral activity was assessed against M36M/I, I54I/V, V82F/A/S/T viral strains isolated from patient-313 pretreated with ritonavir(14 fold) at 85th day; type: functional, organism-based
[12] = system: Human immunodeficiency virus 1; assay: Antiviral activity was assessed against I54I/V, A71V, V82A, L90L/M viral strains isolated from patient-235 pretreated with ritonavir (4 fold) at 36th week; type: functional, organism-based
[13] = system: Human immunodeficiency virus 1; assay: Antiviral activity was assessed against K20K/R, 36M/I, 154V, A71A/V, V82T viral strains isolated from patient-129 pretreated with ritonavir(33 fold) at 16th week; type: functional, organism-based
[14] = system: Human immunodeficiency virus 1; assay: Antiviral activity was assessed against K20K/R, M36M/I, 154V/I, L63L/P, V82/A viral strains isolated from patient-131 pretreated with ritonavir(20 fold) at 28th week; type: functional, organism-based
[15] = system: Human immunodeficiency virus 1; assay: Antiviral activity was assessed against M36I, I54V, A71V, V82T viral strains isolated from patient-129 pretreated with ritonavir(14 fold) at 8th week; type: functional, organism-based
[16] = system: Human immunodeficiency virus 1; assay: Antiviral activity was assessed against M36M/I, V82F viral strains isolated from patient-313 pretreated with ritonavir(9 fold) at 57th day; type: functional, organism-based
[17] = target: Human immunodeficiency virus type 1 protease (Human immunodeficiency virus 1) (UniProt Q72874); assay: Compound was tested for the inhibition of HIV protease at 27 nM

Cytochrome P450 3A4, sequence (P08684 whole entry): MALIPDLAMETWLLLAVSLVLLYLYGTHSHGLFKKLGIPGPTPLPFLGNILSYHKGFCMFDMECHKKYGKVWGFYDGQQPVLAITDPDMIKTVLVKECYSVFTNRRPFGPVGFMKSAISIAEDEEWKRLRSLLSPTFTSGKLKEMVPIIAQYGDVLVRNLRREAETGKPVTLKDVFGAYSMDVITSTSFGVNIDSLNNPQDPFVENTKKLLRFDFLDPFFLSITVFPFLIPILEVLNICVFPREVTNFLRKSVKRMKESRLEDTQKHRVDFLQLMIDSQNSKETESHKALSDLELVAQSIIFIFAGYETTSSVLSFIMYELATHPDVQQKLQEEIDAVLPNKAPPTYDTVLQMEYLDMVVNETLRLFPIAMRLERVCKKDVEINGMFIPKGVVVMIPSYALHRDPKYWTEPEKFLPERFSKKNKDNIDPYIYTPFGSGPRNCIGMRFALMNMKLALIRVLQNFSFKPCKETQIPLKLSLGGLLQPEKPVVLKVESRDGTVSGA

| SMILES | CCIC50 [2] [µM] | pEC50 [3] | pEC50 [4] | inhibition [5] [%] | also measured |
| --- | --- | --- | --- | --- | --- |
| COc1ccc(CN2CCN(C[C@@H](O)[C@H](Cc3ccccc3)NC(=O)[C@@H](NC(=O)OCc3csc(C)n3)C(C)C)[C@H](C(=O)NC(C)(C)C)C2)cc1OC | 57 | 8.00 | 7.38 | 49 | pIC50 [1]: 3.92 |
| CC(C)c1nc(CN(C)C(=O)N[C@H](C(=O)N[C@@H](Cc2ccccc2)[C@H](O)CN2CCN(Cc3cncs3)C[C@H]2C(=O)NC(C)(C)C)C(C)C)cs1 | >100 | 7.89 | 7.08 | 60 |  |
| Cc1nc(COC(=O)N[C@H](C(=O)N[C@@H](Cc2ccccc2)[C@H](O)CN2CCN(Cc3ccc4c(c3)OCO4)C[C@H]2C(=O)NC(C)(C)C)C(C)C)cs1 | 56 | 7.96 | 7.13 | 45 |  |
| CC(C)c1nc(COC(=O)N[C@H](C(=O)N[C@@H](Cc2ccccc2)[C@H](O)CN2CCN(Cc3cccc4c3COC4)C[C@H]2C(=O)NC(C)(C)C)C(C)C)cs1 | 18 | 8.30 | 7.38 | 69 | pIC50 [1]: 4.92 |
| CC(C)c1nc(CN(C)C(=O)N[C@H](C(=O)N[C@@H](Cc2ccccc2)[C@H](O)CN2CCN(Cc3ccccc3)C[C@H]2C(=O)NC(C)(C)C)C(C)C)cs1 | 56 | 7.32 | 6.51 | 66 |  |
| CC(C)[C@H](NC(=O)N(C)Cc1cncs1)C(=O)N[C@@H](Cc1ccccc1)[C@H](O)CN1CCN(Cc2cncs2)C[C@H]1C(=O)NC(C)(C)C | >100 | 6.59 | 6.68 | 50 |  |
| CC(C)c1nc(COC(=O)N[C@H](C(=O)N[C@@H](Cc2ccccc2)[C@H](O)CN2CCN(Cc3cccnc3)C[C@H]2C(=O)NC(C)(C)C)C(C)C)cs1 | 59 | 7.92 | 7.17 | 69 | pIC50 [1]: 5.64 |
| CC(C)[C@@H](NC(=O)N(C)Cc1cncs1)C(=O)N[C@@H](Cc1ccccc1)[C@H](O)CN1CCN(Cc2ccccc2)C[C@H]1C(=O)NC(C)(C)C | 56 | 5.52 | 5.15 |  | inhibition [6]: 50% |
| CC(C)c1nc(COC(=O)N[C@H](C(=O)N[C@@H](Cc2ccccc2)[C@H](O)CN2CCN(Cc3nc4ccccc4[nH]3)C[C@H]2C(=O)NC(C)(C)C)C(C)C)cs1 | 18 | 7.34 | 5.98 | 65 |  |
| CC(C)c1nc(COC(=O)N[C@H](C(=O)N[C@@H](Cc2ccccc2)[C@H](O)CN2CCN(Cc3ccncc3)C[C@H]2C(=O)NC(C)(C)C)C(C)C)cs1 | 56 | 7.77 | 7.12 | 73 |  |
| CC(C)c1nc(COC(=O)N[C@H](C(=O)N[C@@H](Cc2ccccc2)[C@H](O)CN2CCN(Cc3ccccc3)C[C@H]2C(=O)NC(C)(C)C)C(C)C)cs1 | 45 | 7.66 | 7.10 | 61 |  |
| COc1ccc(CN2CCN(C[C@@H](O)[C@H](Cc3ccccc3)NC(=O)[C@@H](NC(=O)OCc3csc(C(C)C)n3)C(C)C)[C@H](C(=O)NC(C)(C)C)C2)cc1OC | 18 | 7.77 | 7.34 | 62 |  |
| CC(C)[C@@H](NC(=O)N(C)Cc1cncs1)C(=O)N[C@@H](Cc1ccccc1)[C@H](O)CN1CCN(Cc2cncs2)C[C@H]1C(=O)NC(C)(C)C |  |  |  |  | EC50 [7]: Not Active; EC50 [8]: Not Active; inhibition [9]: 50%; EC50 [10]: Not Active |
| CC(C)[C@H](NC(=O)OCc1cncs1)C(=O)N[C@@H](Cc1ccccc1)[C@H](O)CN1CCN(Cc2ccccc2)C[C@H]1C(=O)NC(C)(C)C | 53 | 7.77 | 6.98 | 40 |  |
| CC(C)[C@H](NC(=O)OCc1cncs1)C(=O)N[C@@H](Cc1ccccc1)[C@H](O)CN1CCN(Cc2cncs2)C[C@H]1C(=O)NC(C)(C)C | >100 | 7.24 | 7.12 | 45 |  |
| COc1ccc(CN2CCN(C[C@@H](O)[C@H](Cc3ccccc3)NC(=O)[C@@H](NC(=O)OCc3cnc(C)s3)C(C)C)[C@H](C(=O)NC(C)(C)C)C2)cc1OC | 53 | 7.96 | 7.23 | 44 |  |
| CC(C)c1nc(COC(=O)N[C@H](C(=O)N[C@@H](Cc2ccccc2)[C@H](O)CN2CCN(Cc3cncs3)C[C@H]2C(=O)NC(C)(C)C)C(C)C)cs1 | 57 | 7.92 | 7.17 | 67 | pIC50 [1]: 4.82 |
| CC(C)c1nc(COC(=O)N[C@H](C(=O)N[C@@H](Cc2ccccc2)[C@H](O)CN2CCN(Cc3ccc(O)cc3)C[C@H]2C(=O)NC(C)(C)C)C(C)C)cs1 | 19 | 7.33 | 6.65 | 54 |  |
| CC(C)c1nc(COC(=O)N[C@H](C(=O)N[C@@H](Cc2ccccc2)[C@H](O)CN2CCN(Cc3cccc(O)c3)C[C@H]2C(=O)NC(C)(C)C)C(C)C)cs1 | 17 | 7.40 | 6.85 | 53 |  |
| COc1cc(CN2CCN(C[C@@H](O)[C@H](Cc3ccccc3)NC(=O)[C@@H](NC(=O)N(C)Cc3csc(C(C)C)n3)C(C)C)[C@H](C(=O)NC(C)(C)C)C2)ccc1O | 20 | 7.39 | 6.62 | 63 |  |
| CCc1nc(COC(=O)N[C@H](C(=O)N[C@@H](Cc2ccccc2)[C@H](O)CN2CCN(Cc3ccc(OC)c(OC)c3)C[C@H]2C(=O)NC(C)(C)C)C(C)C)cs1 | 45 | 7.72 | 7.38 | 82 |  |
| CCc1ncc(COC(=O)N[C@H](C(=O)N[C@@H](Cc2ccccc2)[C@H](O)CN2CCN(Cc3ccc(OC)c(OC)c3)C[C@H]2C(=O)NC(C)(C)C)C(C)C)s1 | 50 | 7.80 | 6.88 | 37 | pIC50 [1]: 4.46 |
| CC(C)c1nc(CN(C)C(=O)N[C@H](C(=O)N[C@@H](Cc2ccccc2)C[C@H](O)[C@H](Cc2ccccc2)NC(=O)OCc2cncs2)C(C)C)cs1 [RITONAVIR] | 56 | 7.15 | 6.09 |  | pEC50 [11]: 6.24; pEC50 [12]: 7.06; pEC50 [13]: 6.43; pEC50 [14]: 6.44; pEC50 [15]: 6.83; pEC50 [16]: 6.47 |
| Cc1nc(COC(=O)N[C@H](C(=O)N[C@@H](Cc2ccccc2)[C@H](O)CN2CCN(Cc3ccc(F)cc3)C[C@H]2C(=O)NC(C)(C)C)C(C)C)cs1 | 39 | 7.96 | 7.15 | 50 |  |
| CC(C)c1nc(COC(=O)N[C@H](C(=O)N[C@@H](Cc2ccccc2)[C@H](O)CN2CCN(Cc3ccc(F)cc3)C[C@H]2C(=O)NC(C)(C)C)C(C)C)cs1 | 15 | 7.68 | 6.76 | 64 |  |
| COc1ccc(CN2CCN(C[C@@H](O)[C@H](Cc3ccccc3)NC(=O)[C@@H](NC(=O)OCc3cnc(C(C)C)s3)C(C)C)[C@H](C(=O)NC(C)(C)C)C2)cc1OC | 21 | 7.77 | 7.07 | 51 |  |
| CC(C)c1nc(COC(=O)N[C@@H](C(=O)N[C@@H](Cc2ccccc2)[C@H](O)CN2CCN(Cc3cncs3)C[C@H]2C(=O)NC(C)(C)C)C(C)C)cs1 | 18 | 5.22 | 4.59 |  | inhibition [17]: 50% |
